Results published in PubChem BioAssay AID248 (DTP/NCI, 2004).
Several values for one entry are separate records, joined by “and”; a condition that tells them apart may be missing. Equal values may be shown once. Inconclusive results and toxic doses are left out.

Test system: L1210 leukemia ip in BDF1 mice, survival T/C
Assay: NCI In Vivo Anticancer Drug Screen. Data for tumor model L1210 Leukemia (intraperitoneal) in B6D2F1 (BDF1) mice
Settings: endpoint: mean survival time, higher = longer survival
In short: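 Tumor was transplanted into mice, which were then dosed with test compound or vehicle alone. Survival was recorded for each group, and the treated figure was expressed relative to the control figure.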

[1] = dose: 100.0 mg/kg/injection, schedule: Q01DX001 (ip), vehicle: carboxymethylcellulose (CMC)
[2] = dose: 200.0 mg/kg/injection, schedule: Q01DX001 (ip), vehicle: carboxymethylcellulose (CMC)
[3] = dose: 100.0 mg/kg/injection, schedule: Q01DX009 (ip), vehicle: other
[4] = dose: 200.0 mg/kg/injection, schedule: Q01DX009 (ip), vehicle: other
[5] = dose: 100.0 mg/kg/injection, schedule: Q01DX001 (ip), vehicle: saline
[6] = dose: 200.0 mg/kg/injection, schedule: Q01DX001 (ip), vehicle: saline
[7] = dose: 100.0 mg/kg/injection, schedule: Q04DX002 (ip), vehicle: Klucel (hydroxypropylcellulose) (HPC)
[8] = dose: 200.0 mg/kg/injection, schedule: Q04DX002 (ip), vehicle: Klucel (hydroxypropylcellulose) (HPC)
[9] = dose: 400.0 mg/kg/injection, schedule: Q04DX002 (ip), vehicle: Klucel (hydroxypropylcellulose) (HPC)
[10] = dose: 50.0 mg/kg/injection, schedule: Q01DX009 (ip), vehicle: saline with Tween-80
[11] = dose: 100.0 mg/kg/injection, schedule: Q01DX009 (ip), vehicle: saline with Tween-80
[12] = dose: 200.0 mg/kg/injection, schedule: Q01DX009 (ip), vehicle: saline with Tween-80
[13] = dose: 100.0 mg/kg/injection, schedule: Q04DX003 (ip), vehicle: saline
[14] = dose: 200.0 mg/kg/injection, schedule: Q04DX003 (ip), vehicle: saline
[15] = dose: 400.0 mg/kg/injection, schedule: Q04DX003 (ip), vehicle: saline
[16] = dose: 400.0 mg/kg/injection, schedule: Q01DX001 (ip), vehicle: saline
[17] = dose: 100.0 mg/kg/injection, schedule: Q01DX009 (ip), vehicle: Klucel (hydroxypropylcellulose) (HPC)
[18] = dose: 200.0 mg/kg/injection, schedule: Q01DX009 (ip), vehicle: Klucel (hydroxypropylcellulose) (HPC)
[19] = dose: 400.0 mg/kg/injection, schedule: Q01DX009 (ip), vehicle: Klucel (hydroxypropylcellulose) (HPC)

CNC(=O)Nc1cc(C)ccc1Cl
T/C (dose: 50.0 mg/kg/injection, schedule: Q01DX009 (ip), vehicle: carboxymethylcellulose (CMC)): 95 % of control and 89 % of control | T/C (dose: 87.5 mg/kg/injection, schedule: Q04DX003 (ip), vehicle: carboxymethylcellulose (CMC)): 101 % of control | T/C [1]: 94 % of control | T/C (dose: 100.0 mg/kg/injection, schedule: Q04DX002 (ip), vehicle: carboxymethylcellulose (CMC)): 100 % of control and 117 % of control | T/C (dose: 175.0 mg/kg/injection, schedule: Q04DX003 (ip), vehicle: carboxymethylcellulose (CMC)): 93 % of control | T/C [2]: 92 % of control | T/C (dose: 200.0 mg/kg/injection, schedule: Q04DX002 (ip), vehicle: carboxymethylcellulose (CMC)): 100 % of control and 102 % of control | T/C (dose: 350.0 mg/kg/injection, schedule: Q04DX003 (ip), vehicle: carboxymethylcellulose (CMC)): 104 % of control | T/C (dose: 400.0 mg/kg/injection, schedule: Q01DX001 (ip), vehicle: carboxymethylcellulose (CMC)): 94 % of control | T/C (dose: 400.0 mg/kg/injection, schedule: Q01DX009 (ip), vehicle: carboxymethylcellulose (CMC)): 93 % of control | T/C (dose: 400.0 mg/kg/injection, schedule: Q04DX002 (ip), vehicle: carboxymethylcellulose (CMC)): 93 % of control and 96 % of control

CCOC(=O)C(C(C)=O)C(=O)OCC
T/C (dose: 25.0 mg/kg/injection, schedule: Q01DX009 (ip), vehicle: other): 101 % of control | T/C (dose: 50.0 mg/kg/injection, schedule: Q01DX009 (ip), vehicle: other): 103 % of control | T/C [3]: 109 % of control | T/C [4]: 100 % of control | T/C (dose: 400.0 mg/kg/injection, schedule: Q01DX009 (ip), vehicle: other): 95 % of control

C1COC(CNCC2CCCO2)C1 (stereo not drawn)
T/C (dose: 50.0 mg/kg/injection, schedule: Q01DX001 (ip), vehicle: saline): 109 % of control | T/C [5]: 101 % of control | T/C [6]: 103 % of control

O=C1C=C(N2CC2)C(=O)C=C1N1CC1
T/C (dose: 0.62 mg/kg/injection, schedule: Q01DX001 (ip), vehicle: other): 105 % of control | T/C (dose: 1.25 mg/kg/injection, schedule: Q01DX001 (ip), vehicle: other): 117 % of control | T/C (dose: 2.5 mg/kg/injection, schedule: Q01DX001 (ip), vehicle: other): 107 % of control

CCOC(=O)c1nnc(SC)nc1SC
T/C (dose: 75.0 mg/kg/injection, schedule: Q01DX001 (ip), vehicle: alcohol): 100 % of control | T/C (dose: 150.0 mg/kg/injection, schedule: Q01DX001 (ip), vehicle: alcohol): 108 % of control

O=C1Nc2ccccc2C2=C3CCCCC3=NNC12 (stereo not drawn)
T/C [7]: 101 % of control | T/C [8]: 97 % of control | T/C [9]: 108 % of control

C/C=C/C(=O)Nc1cccc(Cl)c1
T/C [3]: 92 % of control | T/C [4]: 100 % of control

O=P(NCCCO)(Oc1ccccc1)N(CCCl)CCCl (stereo not drawn)
T/C (dose: 125.0 mg/kg/injection, schedule: Q01DX Z (ip), vehicle: saline): 95 % of control | T/C (dose: 250.0 mg/kg/injection, schedule: Q01DX Z (ip), vehicle: saline): 102 % of control | T/C (dose: 500.0 mg/kg/injection, schedule: Q01DX Z (ip), vehicle: saline): 102 % of control

O=c1[nH]n(-c2ccccc2)c(=O)cc1Cl
T/C [10]: 97 % of control | T/C [11]: 89 % of control | T/C [12]: 86 % of control

CCOC(=O)CN1CCN2C(=O)N(CC)CCC2C1 (stereo not drawn)
T/C [13]: 95 % of control | T/C [14]: 90 % of control | T/C [15]: 101 % of control

Cc1cc(C)c(O)c(CN(Cc2cc(C)cc(C)c2O)C2CCCCC2)c1
T/C [5]: 96 % of control | T/C [6]: 88 % of control | T/C [16]: 88 % of control

O=C(NCCO)C1OCOC2C(CO)OCOC12 (stereo not drawn)
T/C (dose: 12.5 mg/kg/injection, schedule: Q04DX002 (ip), vehicle: saline): 101 % of control | T/C (dose: 25.0 mg/kg/injection, schedule: Q04DX002 (ip), vehicle: saline): 101 % of control | T/C (dose: 50.0 mg/kg/injection, schedule: Q04DX002 (ip), vehicle: saline): 101 % of control | T/C (dose: 100.0 mg/kg/injection, schedule: Q04DX002 (ip), vehicle: saline): 93 % of control

CC12CC3CC(C1)CC(CC(N)=O)(C3)C2
T/C [13]: 98 % of control | T/C [14]: 103 % of control | T/C [15]: 98 % of control

CC1CN=C(c2ccc(NC(=O)c3ccc(C(=O)Nc4ccc(C5=NCC(C)N5)cc4)cc3)cc2)N1 (stereo not drawn)
T/C (dose: 0.5 mg/kg/injection, schedule: Q01DX Z (ip), vehicle: carboxymethylcellulose (CMC)): 100 % of control | T/C (dose: 1.0 mg/kg/injection, schedule: Q01DX Z (ip), vehicle: carboxymethylcellulose (CMC)): 117 % of control | T/C (dose: 1.0 mg/kg/injection, schedule: Q01DX Z (ip), vehicle: saline): 119 % of control | T/C (dose: 1.9 mg/kg/injection, schedule: Q01DX Z (ip), vehicle: carboxymethylcellulose (CMC)): 198 % of control | T/C (dose: 2.9 mg/kg/injection, schedule: Q01DX Z (ip), vehicle: carboxymethylcellulose (CMC)): 173 % of control and 193 % of control | T/C (dose: 3.8 mg/kg/injection, schedule: Q01DX Z (ip), vehicle: carboxymethylcellulose (CMC)): 228 % of control | T/C (dose: 4.3 mg/kg/injection, schedule: Q01DX Z (ip), vehicle: carboxymethylcellulose (CMC)): 157 % of control | T/C (dose: 6.5 mg/kg/injection, schedule: Q01DX Z (ip), vehicle: carboxymethylcellulose (CMC)): 207 % of control | T/C (dose: 7.5 mg/kg/injection, schedule: Q01DX Z (ip), vehicle: carboxymethylcellulose (CMC)): 337 % of control | T/C (dose: 9.7 mg/kg/injection, schedule: Q01DX Z (ip), vehicle: carboxymethylcellulose (CMC)): 205 % of control | T/C (dose: 15.0 mg/kg/injection, schedule: Q01DX Z (ip), vehicle: carboxymethylcellulose (CMC)): 243 % of control | T/C (dose: 30.0 mg/kg/injection, schedule: Q01DX Z (ip), vehicle: carboxymethylcellulose (CMC)): 175 % of control | T/C (dose: 30.0 mg/kg/injection, schedule: Q01DX Z (oral), vehicle: carboxymethylcellulose (CMC)): 97 % of control | T/C (dose: 32.8 mg/kg/injection, schedule: Q01DX Z (ip), vehicle: carboxymethylcellulose (CMC)): 151 % of control | T/C (dose: 60.0 mg/kg/injection, schedule: Q01DX Z (ip), vehicle: saline): 119 % of control | T/C (dose: 60.0 mg/kg/injection, schedule: Q01DX Z (oral), vehicle: carboxymethylcellulose (CMC)): 94 % of control | T/C (dose: 62.5 mg/kg/injection, schedule: Q## X010 (oral), vehicle: saline): 102 % of control | T/C (dose: 74.0 mg/kg/injection, schedule: Q01DX Z (ip), vehicle: carboxymethylcellulose (CMC)): 114 % of control | T/C (dose: 111.0 mg/kg/injection, schedule: Q01DX Z (ip), vehicle: carboxymethylcellulose (CMC)): 101 % of control | T/C (dose: 120.0 mg/kg/injection, schedule: Q01DX Z (ip), vehicle: saline): 114 % of control | T/C (dose: 120.0 mg/kg/injection, schedule: Q01DX Z (oral), vehicle: carboxymethylcellulose (CMC)): 97 % of control | T/C (dose: 125.0 mg/kg/injection, schedule: Q## X010 (oral), vehicle: saline): 102 % of control | T/C (dose: 240.0 mg/kg/injection, schedule: Q01DX Z (oral), vehicle: carboxymethylcellulose (CMC)): 94 % of control | T/C (dose: 250.0 mg/kg/injection, schedule: Q## X010 (oral), vehicle: saline): 102 % of control | T/C (dose: 375.0 mg/kg/injection, schedule: Q01DX Z (ip), vehicle: carboxymethylcellulose (CMC)): 117 % of control | T/C (dose: 500.0 mg/kg/injection, schedule: Q## X010 (oral), vehicle: saline): 103 % of control

CC1C(N2CCCCC2)N(C(=O)c2ccccc2)SC12c1ccccc1-c1ccccc12 (stereo not drawn)
T/C [7]: 94 % of control | T/C [8]: 102 % of control | T/C [9]: 102 % of control

Cc1[nH]c2c(O)ccc(O)c2c1C
T/C [5]: 106 % of control | T/C [6]: 97 % of control | T/C [16]: 106 % of control

CCOC(=O)Nc1cccc(C)c1C
T/C [17]: 100 % of control | T/C [18]: 107 % of control | T/C [19]: 104 % of control

O=S(=O)(c1ccc(Nc2nnc(-c3ccccc3)s2)cc1)N1CCCCC1
T/C [17]: 96 % of control | T/C [18]: 89 % of control | T/C [19]: 86 % of control

Cc1cc(=O)n(C)c2ccccc12
T/C [10]: 97 % of control | T/C [1]: 93 % of control | T/C [17]: 104 % of control | T/C [11]: 101 % of control | T/C [2]: 93 % of control | T/C [18]: 93 % of control | T/C [12]: 94 % of control
